Experimental data as given in patent publication US11518783B2, “Peptides having tetrahedral mimicking groups as inhibitors of rhomboid proteases” (priority 2016, dated 2022).
Peptide text beside a SMILES is read from it. * marks the point of attachment. CHO = C-terminal aldehyde in place of the boronate, O=C*; boroAla = C[C@H](N*)B(O)O

Key:
PfROM4 = assay: Heterologous cell-based rhomboid cleavage assay in co-transfected HEK293 cells, EBA175 cleavage by PfROM4; design: species or system P. falciparum; conditions: western of conditioned media
From the text: (§1) FIG. 4A-F illustrates RiBn is a non-toxic, selective inhibitor of only PfROM4. A. Chemical structure of one embodiment of RiBn, a peptide of 10 aa with boronate warhead (SEQ ID NO: 3). Ac denotes an N-terminal acetyl moiety, while the C-terminal boronate warhead is on the right. B. Western blot analysis of EBA175 and AMA1 cleavage by PfROM4 in a heterologous cleavage assay. Co-transfected HEK293 cells were conditioned in the presence of absence of the indicated concentrations of RiBn. Cells transfected with AMA1 were conditioned in the presence or absence of the metalloprotease inhibitor (WI) BB-94 to reduce background cleavage by endogenous cellular proteases. N-terminal cleavage products were released into media (anti-GFP, top panels). Lysates were probed for expression of substrate (anti-GFP, middle panel) and enzyme (anti-HA, bottom panel). Quantification of PfROM4 inhibition by RiBn (right panel, mean±s.e.m.). […] Inhibition was analyzed in three independent biological experiments. […] Flow cytometry analysis (calcein AM fluorescence) of the same cells (right panels). […] For data in D and E, toxicity analyses were conducted in three independent biological experiments (once for each assay readout). […]
(§2) Cleavage of substrates and the activity of enzymes was determined in a slightly modified heterologous cleavage assay. […] Two-color quantitative westerns were converted to greyscale.

[1] = system: P. falciparum 3d7 parasites; assay: P. falciparum growth (parasitemia) on human erythrocytes, flow cytometry with acridine orange; format: cell-based; conditions: for inhibition of parasite growth: P. falciparum on human red blood cells
Method: (§3) Inhibitor potency was verified in three independent biological experiments. […] Quantification was conducted once. C.
FIG. 6A-6C illustrates RiBn cures blood stage cultures of malaria by iteratively inhibiting parasite invasion and retarding growth. A. Blood stage cultures containing 1% well synchronized schizont stage parasitized erythrocytes were cultured in the presence or absence of 0.3 mM RiB, as indicated, and analyzed at various time points via flow cytometry (acridine orange, top panels) and fluorescent microscopy (acridine orange staining, bottom panels). After 18 hours of culturing, RiBn was washed out of one replicate of the RiBn treated cultures and monitored as above, as indicated. […] C. Quantification of absolute parasitemia at various time points in blood stage parasite cultures treated with the indicated concentrations of RiBn. In a-c, growth defect was confirmed in three independent biological experiments, while the parallel washout was conducted once and is shown.
(§4) Asexual P. falciparum 3d7 parasites (kind gift of Dr David Sullivan, Johns Hopkins School of Public Health) were cultured in human erythrocytes (O-donor, purchased from Interstate Blood Bank, Inc.) under standard conditions. Sorbitol synchronization was performed ˜1/week or as needed for experiments. For invasion assays, schizont-stage parasites were magnetically purified as previously described (MACS Miltenyi Biotec) and incubated at the appropriate parasitemia (0.2% for dose-response curves) in a 96-well plate in the presence or absence of the peptide-warhead inhibitors at 1.5% hematocrit. Flow cytometry analysis for absolute parasitemia determination and growth characterization was performed by removing a small volume of culture, washing cells in 1×PBS, resuspending them in 1×PBS containing 0.1 μg/mL acridine orange and monitoring FL1/FL3 fluorescence on a FACSCalibur instrument (BD Biosciences). Methanol-fixed, acridine orange stained parasitized erythrocytes were imaged on an inverted fluorescence microscope (Nikon) with bandpass filters. Images were overlaid in Photoshop CC (Adobe). All flow cytometry data were analyzed in FlowJo.

PfROM1 = assay: Heterologous cell-based rhomboid cleavage assay, PfROM1; design: species or system P. falciparum; conditions: highest RiBn concentration, transfection-based assay
From the text: as §1, §2

[2] = LIVE/DEAD viability of RiBn-treated HEK293 cells (fluorescence microscopy and flow cytometry); format: cell-based, human; conditions: human, highest RiBn dose, ~24 hours, calcein AM, read-out: cell viability by flow cytometry
From the text: as §1, with “Lysates were probed for expression of substrate (anti-GFP, middle panel) and enzyme (anti-HA, bottom panel).” left out
(§5) Cell viability of RiBn-treated HEK293 cells was determined with a LIVE/DEAD Viability/Cytotoxicity Kit (Molecular Probes). Calcein AM and ethidium homodimer-1 stained cells were imaged on an inverted fluorescence microscope (Nikon) with the appropriate bandpass filters. […]

HEK293 cells [3] = assay: as above; format: cell-based, human; conditions: highest concentrations
From the text: as §1, with “Lysates were probed for expression of substrate (anti-GFP, middle panel) and enzyme (anti-HA, bottom panel).” left out
as §5

HEK293 cells [4] = assay: Cell cycle analysis of HEK293 cells by flow cytometry (propidium iodine); format: cell-based, human; conditions: 24 hours
[5] = system: other five rhomboid proteases known to reside on the cell surface; assay: Heterologous cell-based rhomboid cleavage assay, other cell surface rhomboid enzymes and their substrates
From the text: as §1, §2

P. falciparum merozoites = assay: P. falciparum invasion assay with synchronized schizont-stage parasites; format: cell-based
Method: as §3, §4

human erythrocytes = conditions: erythrocytes cultured ~18 hours with RiBn
Method: B. Bright-field microscopy (top panel) and flow cytometry analysis (Forward Scatter vs Side Scatter, bottom panel) of erythrocytes cultured in the presence or absence of RiBn for ˜18 hours. Quantification was conducted once.

human rhomboid enzyme = target: T1, human rhomboid enzyme (Homo sapiens, UniProt Q9NX52); assay: Heterologous cell-based rhomboid cleavage assay, human rhomboid enzyme; conditions: transfection-based assay, analyzed in parallel
T1 construct: expressed in transfected cells; host or cells: HEK293T (ATCC CRL-11268), pcDNA3.1
T1 sequence (Q9NX52 1-303): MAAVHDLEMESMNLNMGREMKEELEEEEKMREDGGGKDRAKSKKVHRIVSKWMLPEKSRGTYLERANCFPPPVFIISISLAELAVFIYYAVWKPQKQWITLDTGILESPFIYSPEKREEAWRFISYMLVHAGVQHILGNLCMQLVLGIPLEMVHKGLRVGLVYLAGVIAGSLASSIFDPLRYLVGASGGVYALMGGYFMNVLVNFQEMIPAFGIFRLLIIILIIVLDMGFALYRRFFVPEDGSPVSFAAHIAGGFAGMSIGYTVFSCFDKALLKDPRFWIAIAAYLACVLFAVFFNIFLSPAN
From the text: as §1, §2

GlpG = GlpG (Escherichia coli, UniProt P09391); conditions: GlpG in living E. coli cells, side-by-side comparison
Sequence of GlpG (P09391 whole entry): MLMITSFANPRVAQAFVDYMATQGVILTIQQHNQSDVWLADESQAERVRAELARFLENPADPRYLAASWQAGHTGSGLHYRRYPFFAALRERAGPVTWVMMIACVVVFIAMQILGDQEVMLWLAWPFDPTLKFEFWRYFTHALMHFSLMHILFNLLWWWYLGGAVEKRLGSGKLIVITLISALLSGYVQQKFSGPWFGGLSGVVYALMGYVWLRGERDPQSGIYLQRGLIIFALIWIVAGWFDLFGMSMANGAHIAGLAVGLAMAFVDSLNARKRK
Method: F. Inhibition of endogenous GlpG activity in living E. coli cells grown in liquid culture. Δ is the negative control in which GlpG was deleted from the E. coli genome. Peptide inhibitors were added at the indicated concentrations directly to growing cultures. Shown are quantitative infrared anti-flag westerns, with the top band being the TatA-Flag uncut substrate, and the lower band being the cut product. Quantification of cleavage was used to calculate the EC50 concentrations (graph on right, mean±s.e.m.). Inhibition was analyzed in three independent biological experiments, each with a full spectrum of concentrations per compound.
Dose-response curves were analyzed in the R environment. Curve fitting and graphing was performed with the DRC package using data appropriate models. EC50 values are depicted along with the standard error of the fit.

Compound | inhibition of EBA175 processing by PfROM4 (PfROM4) | inhibition of parasite growth [1] | inhibition of PfROM1 (PfROM1) | viability [2] [%] | cell viability in fluorescence-based live/dead cell assay (HEK293 cells [3]) | adherence, growth, or cell cycle distribution of treated versus untreated cells (HEK293 cells [4]) | effect on cell viability or function (translation, glycosylation, trafficking, secretion of substrates) ([5]; transfected HEK293 cells, highest RiBn concentrations) | inhibition of the other five cell surface rhomboid proteases ([5]; transfection-based assay, analyzed in parallel) | maximal inhibition of merozoite invasion (P. falciparum merozoites; first round of infection, flow cytometry) [%] | inhibition of merozoite invasion of red blood cells (P. falciparum merozoites; synchronized cultures, ~24 hours) | host cell (red blood cell) viability (human erythrocytes) | inhibition of the human rhomboid enzyme (human rhomboid enzyme) | effect on other parasite stages including egress ([1]; delayed parasites through lifecycle stages) | growth of parasites that invaded in presence of RiBn ([1]; subsequent time points, versus vehicle-treated controls) | effect of washing out RiBn after the first round of invasion ([1]; washout after 18 hours, 0.3 mM) | increase in potency relative to the aldehyde of the same tetrapeptide (GlpG) [fold] | increase in potency relative to the chloromethylketone of the same tetrapeptide (GlpG) [fold]
peptide-aldehyde: same peptide sequence as RiBn but replacing the boronate with an aldehyde moiety (Ac-KRFRSMQYSA-{CHO}; also: aldehyde moiety replacing the boronate, place not given here) [reference compound] | completely abolished PfROM4 inhibition | abolished inhibition | – | – | – | – | – | – | – | – | – | – | – | – | – | – | –
CSCC[C@H](NC(=O)[C@H](CO)NC(=O)[C@H](CCCNC(=N)N)NC(=O)[C@H](Cc1ccccc1)NC(=O)[C@H](CCCNC(=N)N)NC(=O)[C@H](CCCCN)NC(C)=O)C(=O)N[C@@H](CCC(N)=O)C(=O)N[C@@H](Cc1ccc(O)cc1)C(=O)N[C@@H](CO)C(=O)N[C@@H](C)B(O)O [RiBn] (Ac-KRFRSMQYS-boroAla) | inhibited EBA175 processing by PfROM4 in a dose-dependent manner | dose-dependent inhibition of parasite growth | completely unaffected | 92.4 | no change in cell viability | no apparent change | no apparent effect on cell viability or function | no inhibitory effect | ~50 | dose-dependent inhibition of merozoite invasion | not affecting host cell viability | no inhibitory effect | minimally or not affected | grew considerably slower than vehicle-treated controls | rescued parasite growth | – | –
Ac-VRMA-B(OH)2 | – | – | – | – | – | – | – | – | – | – | – | – | – | – | – | > 100 | > 400
